The molecules below were run against T1, ΔF508-CFTR (Homo sapiens, UniProt P13569, DEL508-508) (assay: hBE equivalent current (Ieq) assay, AUC of equivalent chloride current). Settings: compound at 10 uM, 24 h, primary hBE cells homozygous ΔF508; AUC increase relative to VX-809 at 1 uM.
T1 construct: Primary lung epithelial cells (hBEs) homozygous for the Cystic Fibrosis-causing ΔF508 mutation; endogenous in cells; host or cells: primary lung (bronchial) epithelial cells (hBE) homozygous for ΔF508, differentiated at an air-liquid interface
T1 sequence (P13569 with tags, fused parts or gaps DEL508-508): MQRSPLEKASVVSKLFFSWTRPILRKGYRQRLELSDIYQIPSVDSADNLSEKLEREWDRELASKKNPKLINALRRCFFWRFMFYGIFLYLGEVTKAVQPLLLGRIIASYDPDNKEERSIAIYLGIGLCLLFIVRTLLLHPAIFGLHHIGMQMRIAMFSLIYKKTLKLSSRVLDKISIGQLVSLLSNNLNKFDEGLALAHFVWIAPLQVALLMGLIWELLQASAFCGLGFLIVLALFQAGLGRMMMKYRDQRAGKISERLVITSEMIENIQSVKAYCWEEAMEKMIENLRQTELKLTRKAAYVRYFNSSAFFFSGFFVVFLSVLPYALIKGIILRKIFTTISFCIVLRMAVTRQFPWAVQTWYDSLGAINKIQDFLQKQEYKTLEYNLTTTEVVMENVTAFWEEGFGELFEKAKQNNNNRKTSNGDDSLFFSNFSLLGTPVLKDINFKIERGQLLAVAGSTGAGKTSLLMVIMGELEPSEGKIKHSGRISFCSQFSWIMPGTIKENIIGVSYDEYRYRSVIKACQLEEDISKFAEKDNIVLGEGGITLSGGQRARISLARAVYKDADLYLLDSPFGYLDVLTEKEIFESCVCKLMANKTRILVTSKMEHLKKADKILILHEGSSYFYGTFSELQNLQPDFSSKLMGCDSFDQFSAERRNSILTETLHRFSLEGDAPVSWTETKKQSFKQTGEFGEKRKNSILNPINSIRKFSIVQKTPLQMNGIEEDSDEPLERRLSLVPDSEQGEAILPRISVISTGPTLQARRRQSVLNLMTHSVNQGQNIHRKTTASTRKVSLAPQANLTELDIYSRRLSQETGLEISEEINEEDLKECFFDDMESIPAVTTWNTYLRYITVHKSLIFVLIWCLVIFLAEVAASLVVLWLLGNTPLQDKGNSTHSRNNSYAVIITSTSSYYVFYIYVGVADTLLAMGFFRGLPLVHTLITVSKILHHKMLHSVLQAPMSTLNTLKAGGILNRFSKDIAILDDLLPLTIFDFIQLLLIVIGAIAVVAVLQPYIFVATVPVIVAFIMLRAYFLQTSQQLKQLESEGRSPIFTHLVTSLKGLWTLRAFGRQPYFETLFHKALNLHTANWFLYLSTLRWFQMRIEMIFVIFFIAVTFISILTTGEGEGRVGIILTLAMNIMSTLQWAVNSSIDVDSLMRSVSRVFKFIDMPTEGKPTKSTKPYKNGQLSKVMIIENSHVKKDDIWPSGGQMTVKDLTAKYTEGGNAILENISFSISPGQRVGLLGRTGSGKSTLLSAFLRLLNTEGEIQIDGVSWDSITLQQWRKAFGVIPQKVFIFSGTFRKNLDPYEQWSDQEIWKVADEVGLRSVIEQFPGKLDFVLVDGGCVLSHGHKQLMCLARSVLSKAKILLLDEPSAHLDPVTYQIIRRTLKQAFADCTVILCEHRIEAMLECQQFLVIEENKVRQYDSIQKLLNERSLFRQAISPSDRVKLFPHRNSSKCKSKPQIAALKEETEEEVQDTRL
Assay type: cell-based
Method: Primary lung epithelial cells homozygous for the Cystic Fibrosis-causing ΔF508 mutation were differentiated for a minimum of 4 weeks in an air-liquid interface on Costar 24 well HTS filter plates prior to the equivalent current (Ieq) measurements. Cells were apically mucus-washed for 30 minutes 24 h prior to treatment with compounds. The basolateral media was removed and replaced with media containing the compound of interest diluted to its final concentration from DMSO stocks. Treated cells were incubated at 37° C. and 5% CO2 for 24 hours. At the end of the treatment period, the media was changed to the Ieq experimental solution for 30 minutes before the experiment and plates are maintained in a CO2-free incubator during this period. The plates containing the cells were then placed in pre-warmed heating blocks at 36° C.±0.5 for 15 minutes before measurements are taken. The transepithelial voltage (VT) and conductance (GT) were measured using a custom 24 channel current clamp (TECC-24) with 24 well electrode manifold. The Ieq assay measurements were made following additions with standardized time periods: • 1. The baseline VT and GT values were measured for approximately 20 minutes. • 2. Benzamil was added to block ENaC for 15 minutes. • 3. Forskolin plus VX-770 were added to maximally activate ΔF508-CFTR for 27 minutes. • 4. Bumetanide was added to inhibit the NaK2Cl cotransporter and shut-off secretion of chloride. The activity data captured was the area under the curve (AUC) for the traces of the equivalent chloride current. The AUC was collected from the time of the forskolin/VX-770 addition until the inhibition by bumetanide addition. Correction in response to compound treatment was scored as the increase in the AUC for compound-treated samples over that of vehicle-treated samples. (++ indicates activity ≧25% run at 10 uM of VX-809 at 1 uM, + indicates activity 10 to ≦25% run at 10 uM of VX-809 at 1 uM.

Structure (SMILES)	Ieq hBE Activity
O=C(NCCc1cnccn1)c1cc(-c2ccccc2)on1 [Compound 6]	++ (++ indicates activity ≧25% run at 10 uM of VX-809 at 1 uM)
O=C(NCCCN1CCOCC1)c1cc(-c2cccs2)on1 [Compound 14]	++ (++ indicates activity ≧25% run at 10 uM of VX-809 at 1 uM)
Nc1nnc(CCCNC(=O)c2cc(-c3ccccc3)on2)s1 [Compound 201]	++ (++ indicates activity ≧25% run at 10 uM of VX-809 at 1 uM)
O=C(NCCCn1cccn1)c1cc(-c2ccccc2)on1 [Compound 189]	++ (++ indicates activity ≧25% run at 10 uM of VX-809 at 1 uM)
O=C(NCCc1ccccn1)c1cc(-c2ccccc2)on1 [Compound 100]	+ (+ indicates activity 10 to ≦25% run at 10 uM of VX-809 at 1 uM)
CN(CC1CCCO1)C(=O)c1cc(CN2CCOCC2)on1 (centres unmarked) [Compound 256]	+ (+ indicates activity 10 to ≦25% run at 10 uM of VX-809 at 1 uM)
COCCNC(=O)c1cc(-c2cccs2)on1 [Compound 224]	++ (++ indicates activity ≧25% run at 10 uM of VX-809 at 1 uM)
COCCNC(=O)c1cc(-c2ccc(C(F)(F)F)cc2)on1 [Compound 161]	+ (+ indicates activity 10 to ≦25% run at 10 uM of VX-809 at 1 uM)
Cn1ccc(CNC(=O)c2cc(-c3ccccc3)on2)n1 [Compound 27]	+ (+ indicates activity 10 to ≦25% run at 10 uM of VX-809 at 1 uM)
O=C(NCCN1CCOC1=O)c1cc(-c2ccccc2)on1 [Compound 5]	++ (++ indicates activity ≧25% run at 10 uM of VX-809 at 1 uM)
O=C(NCc1ccccn1)c1cc(-c2ccccc2)on1 [Compound 41]	+ (+ indicates activity 10 to ≦25% run at 10 uM of VX-809 at 1 uM)
O=C(NCC1CCCO1)c1cc(-c2ccco2)on1 (centres unmarked) [Compound 321]	+ (+ indicates activity 10 to ≦25% run at 10 uM of VX-809 at 1 uM)
CSCc1noc(CNC(=O)c2cc(-c3ccccc3)on2)n1 [Compound 36]	++ (++ indicates activity ≧25% run at 10 uM of VX-809 at 1 uM)
O=C(NCCc1cccnc1)c1cc(-c2cccs2)on1 [Compound 233]	+ (+ indicates activity 10 to ≦25% run at 10 uM of VX-809 at 1 uM)
O=C(NCCCn1ncc2ccccc21)c1cc(-c2ccccc2)on1 [Compound 204]	++ (++ indicates activity ≧25% run at 10 uM of VX-809 at 1 uM)
O=C(NCCC1CCOCC1)c1cc(-c2ccccc2)on1 [Compound 90]	++ (++ indicates activity ≧25% run at 10 uM of VX-809 at 1 uM)
O=C(NCCCCc1ccncc1)c1cc(-c2cccs2)on1 [Compound 239]	+ (+ indicates activity 10 to ≦25% run at 10 uM of VX-809 at 1 uM)
COCCNC(=O)c1cc(-c2ccccc2F)on1 [Compound 150]	+ (+ indicates activity 10 to ≦25% run at 10 uM of VX-809 at 1 uM)
O=C(NCc1ccco1)c1cc(-c2ccccc2)on1 [Compound 20]	+ (+ indicates activity 10 to ≦25% run at 10 uM of VX-809 at 1 uM)

Structure (SMILES)	Ieq hBE Activity
O=C(NCC(O)c1ccncc1)c1cc(-c2ccccc2)on1 (centres unmarked) [Compound 7]	++ (++ indicates activity ≧25% run at 10 uM of VX-809 at 1 uM)
O=C(NCCN1CCOCC1)c1cc(-c2cccs2)on1 [Compound 229]	+ (+ indicates activity 10 to ≦25% run at 10 uM of VX-809 at 1 uM)
O=C(NCCC1CCOCC1)c1cc(-c2cccs2)on1 [Compound 230]	++ (++ indicates activity ≧25% run at 10 uM of VX-809 at 1 uM)
Cn1nccc1CCCNC(=O)c1cc(-c2ccccc2)on1 [Compound 188]	++ (++ indicates activity ≧25% run at 10 uM of VX-809 at 1 uM)
COCCNC(=O)c1cc(-c2ccccc2)on1 [Compound 329A]	++ (++ indicates activity ≧25% run at 10 uM of VX-809 at 1 uM)
CCc1ncc(CCNC(=O)c2cc(-c3ccccc3)on2)s1 [Compound 374]	+ (+ indicates activity 10 to ≦25% run at 10 uM of VX-809 at 1 uM)
O=C(NC[C@@H]1CCCO1)c1cc(-c2ccccc2)on1 [Compound 2, (S)-5-phenyl-N-((tetrahydrofuran-2-yl)methyl)isoxazole-3-carboxamide]	++ (++ indicates activity ≧25% run at 10 uM of VX-809 at 1 uM)
O=C(NCC1CCCC1)c1cc(-c2ccccc2)on1 [Compound 51]	+ (+ indicates activity 10 to ≦25% run at 10 uM of VX-809 at 1 uM)
O=C(NCC1CCCO1)c1cc(-c2cccs2)on1 (centres unmarked) [Compound 225]	++ (++ indicates activity ≧25% run at 10 uM of VX-809 at 1 uM)
O=C(NCCn1ccnn1)c1cc(-c2ccccc2)on1 [Compound 376]	++ (++ indicates activity ≧25% run at 10 uM of VX-809 at 1 uM)
O=C(NCCc1ccncc1)c1cc(-c2cccs2)on1 [Compound 234]	++ (++ indicates activity ≧25% run at 10 uM of VX-809 at 1 uM)
O=C(NCCCn1nccc1C1CC1)c1cc(-c2ccccc2)on1 [Compound 200]	++ (++ indicates activity ≧25% run at 10 uM of VX-809 at 1 uM)
O=C(NCCn1ccnn1)c1cc(-c2cccs2)on1 [Compound 377]	++ (++ indicates activity ≧25% run at 10 uM of VX-809 at 1 uM)
O=C(NCCCn1nnc2ccccc21)c1cc(-c2ccccc2)on1 [Compound 205]	++ (++ indicates activity ≧25% run at 10 uM of VX-809 at 1 uM)
O=C(NCC(O)COCc1ccccc1)c1cc(-c2ccccc2)on1 (centres unmarked) [Compound 172]	+ (+ indicates activity 10 to ≦25% run at 10 uM of VX-809 at 1 uM)
O=C(NCCCN1CCOCC1)c1cc(-c2ccccc2)on1 [Compound 13]	++ (++ indicates activity ≧25% run at 10 uM of VX-809 at 1 uM)
Cc1ncc(NCCNC(=O)c2cc(-c3ccccc3)on2)[nH]c1=O [Compound 375]	+ (+ indicates activity 10 to ≦25% run at 10 uM of VX-809 at 1 uM)
CCCCNC(=O)c1cc(-c2ccc(F)cc2)on1 [Compound 342]	++ (++ indicates activity ≧25% run at 10 uM of VX-809 at 1 uM)
O=C(NCCCN1CCOCC1)c1cc(-c2ccc(F)cc2)on1 [Compound 128]	+ (+ indicates activity 10 to ≦25% run at 10 uM of VX-809 at 1 uM)

Structure (SMILES)	Ieq hBE Activity
Cn1nncc1CCCNC(=O)c1cc(-c2ccccc2)on1 [Compound 295]	+ (+ indicates activity 10 to ≦25% run at 10 uM of VX-809 at 1 uM)
COCCNC(=O)c1cc(-c2ccccc2OC)on1 [Compound 153]	++ (++ indicates activity ≧25% run at 10 uM of VX-809 at 1 uM)
O=C(NCCCCO)c1cc(-c2cccs2)on1 [Compound 349]	++ (++ indicates activity ≧25% run at 10 uM of VX-809 at 1 uM)
Cn1cncc1CCCNC(=O)c1cc(-c2ccccc2)on1 [Compound 195]	++ (++ indicates activity ≧25% run at 10 uM of VX-809 at 1 uM)
COCc1nc(CNC(=O)c2cc(-c3ccccc3)on2)no1 [Compound 372]	++ (++ indicates activity ≧25% run at 10 uM of VX-809 at 1 uM)
Cc1nnc(CCNC(=O)c2cc(-c3ccccc3)on2)s1 [Compound 8]	++ (++ indicates activity ≧25% run at 10 uM of VX-809 at 1 uM)
CCCn1cc(CNC(=O)c2cc(-c3ccccc3)on2)cn1 [Compound 30]	+ (+ indicates activity 10 to ≦25% run at 10 uM of VX-809 at 1 uM)
CCNC(=O)c1cc(-c2ccccc2)on1 [Compound 336]	++ (++ indicates activity ≧25% run at 10 uM of VX-809 at 1 uM)
COCc1noc(CCNC(=O)c2cc(-c3ccccc3)on2)n1 [Compound 11]	++ (++ indicates activity ≧25% run at 10 uM of VX-809 at 1 uM)
Cn1cnc(CCCNC(=O)c2cc(-c3ccccc3)on2)c1 [Compound 197]	++ (++ indicates activity ≧25% run at 10 uM of VX-809 at 1 uM)
Cn1ccc(CCCNC(=O)c2cc(-c3ccccc3)on2)c1 [Compound 198]	++ (++ indicates activity ≧25% run at 10 uM of VX-809 at 1 uM)
O=C(NCCCc1ccoc1)c1cc(-c2ccccc2)on1 [Compound 194]	+ (+ indicates activity 10 to ≦25% run at 10 uM of VX-809 at 1 uM)
O=C(NCCN1C(=O)CSC1=O)c1cc(-c2ccccc2)on1 [Compound 94]	+ (+ indicates activity 10 to ≦25% run at 10 uM of VX-809 at 1 uM)
CCn1nc(C)c(CCNC(=O)c2cc(-c3ccccc3)on2)c1C [Compound 10]	+ (+ indicates activity 10 to ≦25% run at 10 uM of VX-809 at 1 uM)
O=C(NCCc1cccnc1)c1cc(-c2ccccc2)on1 [Compound 101]	++ (++ indicates activity ≧25% run at 10 uM of VX-809 at 1 uM)
O=C(NCCNC(=O)c1cc(-c2ccccc2)on1)c1cccnc1 [Compound 373]	++ (++ indicates activity ≧25% run at 10 uM of VX-809 at 1 uM)
O=C(NCCCC(F)(F)F)c1cc(-c2cccs2)on1 [Compound 223]	++ (++ indicates activity ≧25% run at 10 uM of VX-809 at 1 uM)
COCCNC(=O)c1cc(-c2ccc(F)cc2)on1 [Compound 19]	++ (++ indicates activity ≧25% run at 10 uM of VX-809 at 1 uM)
